# From patent US12606559B2, “JAK inhibitor compounds, methods for synthesizing same and use thereof” (GALDERMA HOLDING SA, priority 2020, dated 2026)
# Entries after “also recorded” stand apart in the source; their conditions may differ. Where two headings read alike, the source gives them in different places.
# Key:
# [1] = Intrinsic clearance in rat hepatocytes; format: in vitro ADME, male Wistar Han rats; details: 2.5 μM
# Procedure: (§1) The intrinsic clearance was assessed in cryopreserved Hepatocytes obtained by Human livers donors of mix gender pooled together, male balb-c mouse, male Wistar Han rats and male Göttingen minipig, by looking at the parent compound disappearance. The incubations were performed using a final concentration of viable cells of 1 million/ml (viability above 70%) and test item of 2.5 μM. Incubations were followed up to 2 h. Aliquotes were withdrawn at different time points and reaction quenched with acetonitrile. After centrifugation the supernatant was analyzed by HPLC/MS to quantify the remaining amount of parent in comparison with time 0. The clearance was calculated by fitting the log of the percentage remaining with Graphpad Prism ver.7.
# [2] = Protein binding analysis (RED), human plasma; format: in vitro ADME; details: 5 μM, RED 4 h
# Procedure: (§2) The protein binding was assessed in plasma of Human, male balb-c mice, male Wistar Han rat, male Gottingen minipig by rapid equilibrium dialysis (RED) devices. After the plasma and buffer phosphate 50 mM pH7.4 were equilibrated at 37° C., the compound was added to plasma to reach a final concentration of 5 μM. An aliquot of plasma was withdrawn immediately. Equilibration under mild agitation was continued for 4 h. The plasma and buffer were sampled and samples were quenched with 4 volumes of acetonitrile and centrifuged. Supernatant was quantified in HPLC/MS/MS to calculate the recovery and the percentage of compound dissolved in the buffer (unbound) and bound to plasma proteins.
# [3] = Protein binding analysis (RED), rat plasma; format: in vitro ADME, male Wistar Han rat; details: 5 μM, RED 4 h
# Procedure: as §2
# [4] = Intrinsic clearance in mouse hepatocytes; format: in vitro ADME, male balb-c mouse; details: 2.5 μM
# Procedure: as §1
# [5] = In vivo pharmacokinetic analysis in rat, iv; set-up: species or system male Wistar Han rat; details: iv 1 mg/kg
# Procedure: One male Wistar Han rat. Compound was administered intravenously to fed animal at a target dose of 1 mg/kg, dose volume: 2 mL/kg, in DMSO/hydroxypropyl-beta-cyclodextrin 20% in phosphate buffer 60 mM pH 7 (5:95). Blood samples were collected at various time points. Blood samples were then assayed using a method based upon protein precipitation with acetonitrile followed by LC/MS/MS analysis. Non-compartmental methods were used for pharmacokinetic analysis of blood concentration versus time data
# [6] = Thermodynamic solubility PG_H2O pH 6 2/8; format: physicochemical; details: amorphous, no cristalline material available
# [7] = In vivo pharmacokinetic analysis in minipig, iv; set-up: species or system male Göttingen minipigs; details: iv 1 mg/kg
# Procedure: Three male Göttingen minipigs. Compound was administered intravenously to fed animals at a target dose of 1 mg/kg, dose volume 1 mL/kg, in DMSO: hydroxypropyl-β-cyclodextrin 20% in phosphate buffer 60 mM pH 7 (5:95). Blood samples were collected at various time points. Blood samples were then assayed using a method based upon protein precipitation with acetonitrile followed by LC/MS/MS analysis. Non-compartmental methods were used for pharmacokinetic analysis of blood concentration versus time data.
# [8] = Systemic level in PD/IL6 mouse topical dose response; details: topical 10 mM, PG/Acetone/Transcutol
# [9] = Kinetic aqueous solubility; format: physicochemical
# [10] = system: 44 targets (binding and enzyme/uptake assays); assay: CEREP Safety Screen-44; details: 10 μM
# Procedure: An in vitro pharmacology assay was conducted to assess the capability of the compounds to interact with different pharmacological targets when tested at 10 μM in different binding and enzyme/uptake assays. The included targets are indicative of potential effects in major organs and drug-drug interactions.
# Compound binding was calculated as a % inhibition of the binding of a radioactively labelled ligand specific for each target. […] […].
# [11] = Intrinsic clearance in minipig hepatocytes; format: in vitro ADME, male Göttingen minipig; details: 2.5 μM
# Procedure: as §1
# [12] = system: IL-6 induced Phospho-STAT3 (Tyr705) in TF-1 cells; assay: In vitro cellular pSTAT3 assay, IL-6 stimulated TF-1 cells; format: cell-based; details: Homo sapiens
# [13] = Intrinsic clearance in human hepatocytes; format: in vitro ADME; details: 2.5 μM
# Procedure: as §1
# IL6 signalling in hWB = assay: hWB assay, IL6; format: cell-based, human; details: Homo sapiens, read-out: hWB assay: IC50 IL6
# [14] = Protein binding analysis (RED), mouse plasma; format: in vitro ADME, male balb-c mice; details: 5 μM, RED 4 h
# Procedure: as §2
# [15] = Human skin ex vivo: flux through skin and dermis concentration (Franz cells); format: in vitro ADME; details: PG/H2O cream 1 mg/mL
structure (smiles),measurement,setting,value
"N#CC[C@H](C1CCCC1)n1cc(-c2ncnc3[nH]ccc23)cn1 [Ruxolitinib, reference compound]",Intr. Clear. rheps,[1],300 microL/min/10 6 cells
same,hFU,[2],4%
same,rFU,[3],13%
same,Intr. Clear. mheps,[4],150 microL/min/10 6 cells
same,"iv PK rat: Cl (value in brackets, %)",[5],51%
same,"Sol PG_H2O pH 6 2/8, amorphous material",[6],material available-1 mM; also recorded: (0.3 mg/mL)-amorphous)
same,"iv PK minipig: Cl (value in brackets, %)",[7],68%
same,PD/IL6 mouse top DR 0.01-10 mM: Systemic level @ 10 mM - 2 hrs,[8],81 nM
same,Kinetic aq sol,[9],232/ND (no cristalline microM
same,"Safety panel (Cerep): 44 targets % inh @ 10 microM, Nb of targets > 50% inh",[10],0/44
same,Intr. Clear. minipig heps,[11],141 microL/min/10 6 cells
same,IC50,"[12]; TF-1, read-out: Cellular Assay: IC50 IL6",8 nM
same,IC50,"[12]; TF-1, read-out: Free IC50",200 nM
same,Intr. Clear. h heps,[13],4.4 microL/min/10 6 cells
same,IC50,IL6 signalling in hWB,6900 nM
same,mFU,[14],7.7%
same,measured flux 6-24 hr,[15],5.3 ng/cm^2/hr
